Experiment [1] deals with Insulin receptor-related protein (Homo sapiens) (UniProt P14616). Briefly: Inhibition of INSRR (unknown origin) assessed as residual activity at 1000 nM by KINOMEscan analysis relative to control.
For experiment [2], the system named is Fibroblast growth factor receptor 3 (Homo sapiens), P22607 [G697C]. Description: Inhibition of FGFR3 G697C mutant (unknown origin) assessed as residual activity at 1000 nM by KINOMEscan analysis relative to control.
Experiment [3] deals with T1, Serine/threonine-protein kinase PLK4 (Homo sapiens) (UniProt O00444).
T1 sequence (whole entry): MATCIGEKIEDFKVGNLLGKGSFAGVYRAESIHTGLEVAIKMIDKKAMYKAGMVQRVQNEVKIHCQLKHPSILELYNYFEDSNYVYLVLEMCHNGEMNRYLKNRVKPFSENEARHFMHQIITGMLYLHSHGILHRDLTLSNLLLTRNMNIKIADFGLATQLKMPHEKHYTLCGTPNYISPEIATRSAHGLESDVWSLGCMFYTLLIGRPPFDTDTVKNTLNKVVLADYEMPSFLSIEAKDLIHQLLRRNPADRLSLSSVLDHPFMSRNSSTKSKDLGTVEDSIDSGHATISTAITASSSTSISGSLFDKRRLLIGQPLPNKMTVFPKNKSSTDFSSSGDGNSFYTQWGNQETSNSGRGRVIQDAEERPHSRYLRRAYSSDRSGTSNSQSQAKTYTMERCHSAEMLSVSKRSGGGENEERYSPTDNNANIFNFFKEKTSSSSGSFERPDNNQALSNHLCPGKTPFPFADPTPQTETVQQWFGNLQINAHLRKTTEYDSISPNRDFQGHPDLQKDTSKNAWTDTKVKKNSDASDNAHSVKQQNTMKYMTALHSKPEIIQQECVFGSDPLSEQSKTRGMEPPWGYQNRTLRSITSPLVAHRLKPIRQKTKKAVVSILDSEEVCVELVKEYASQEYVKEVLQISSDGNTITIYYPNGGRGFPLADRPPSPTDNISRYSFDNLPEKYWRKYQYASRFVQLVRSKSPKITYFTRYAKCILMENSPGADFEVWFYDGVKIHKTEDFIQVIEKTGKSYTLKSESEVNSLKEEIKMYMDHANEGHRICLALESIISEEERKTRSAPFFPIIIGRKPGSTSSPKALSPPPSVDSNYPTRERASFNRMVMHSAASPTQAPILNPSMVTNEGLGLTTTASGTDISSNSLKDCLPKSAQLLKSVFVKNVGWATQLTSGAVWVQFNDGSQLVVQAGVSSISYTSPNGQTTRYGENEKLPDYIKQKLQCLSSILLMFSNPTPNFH
Briefly: Inhibition of PLK4 (unknown origin) assessed as residual activity at 1000 nM by KINOMEscan analysis relative to control.

Experiment [4] concerns Leucine-rich repeat serine/threonine-protein kinase 2 (Homo sapiens), Q5S007 [G2019S]. Briefly: Inhibition of LRRK2 G2019S mutant (unknown origin) assessed as residual activity at 1000 nM by KINOMEscan analysis relative to control.
Experiment [5] has as its target T2, Mitogen-activated protein kinase 12 (Homo sapiens) (UniProt P53778).
T2 sequence (whole entry): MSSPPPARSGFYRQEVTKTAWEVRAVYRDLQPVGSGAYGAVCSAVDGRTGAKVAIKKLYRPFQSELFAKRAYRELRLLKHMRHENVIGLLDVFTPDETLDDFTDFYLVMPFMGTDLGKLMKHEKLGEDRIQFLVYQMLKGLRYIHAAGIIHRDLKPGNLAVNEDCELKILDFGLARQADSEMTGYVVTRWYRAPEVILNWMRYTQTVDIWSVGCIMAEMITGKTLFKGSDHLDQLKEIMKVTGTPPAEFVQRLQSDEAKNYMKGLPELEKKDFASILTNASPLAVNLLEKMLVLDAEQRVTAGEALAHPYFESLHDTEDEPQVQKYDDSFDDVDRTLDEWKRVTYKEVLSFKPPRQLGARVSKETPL
Description: Inhibition of p38-gamma (unknown origin) assessed as residual activity at 1000 nM by KINOMEscan analysis relative to control.

Experiment [6] addresses Cyclin-dependent kinase 11B (Homo sapiens) (UniProt P21127). Description: Inhibition of CDK11 (unknown origin) assessed as residual activity at 1000 nM by KINOMEscan analysis relative to control.
Experiment [7] concerns the target Myosin light chain kinase, smooth muscle (Homo sapiens) (UniProt Q15746). Description: Inhibition of MYLK (unknown origin) assessed as residual activity at 1000 nM by KINOMEscan analysis relative to control.
Experiment [8] concerns the target T3, Mitogen-activated protein kinase kinase kinase 2 (Homo sapiens) (UniProt Q9Y2U5).
T3 sequence (whole entry): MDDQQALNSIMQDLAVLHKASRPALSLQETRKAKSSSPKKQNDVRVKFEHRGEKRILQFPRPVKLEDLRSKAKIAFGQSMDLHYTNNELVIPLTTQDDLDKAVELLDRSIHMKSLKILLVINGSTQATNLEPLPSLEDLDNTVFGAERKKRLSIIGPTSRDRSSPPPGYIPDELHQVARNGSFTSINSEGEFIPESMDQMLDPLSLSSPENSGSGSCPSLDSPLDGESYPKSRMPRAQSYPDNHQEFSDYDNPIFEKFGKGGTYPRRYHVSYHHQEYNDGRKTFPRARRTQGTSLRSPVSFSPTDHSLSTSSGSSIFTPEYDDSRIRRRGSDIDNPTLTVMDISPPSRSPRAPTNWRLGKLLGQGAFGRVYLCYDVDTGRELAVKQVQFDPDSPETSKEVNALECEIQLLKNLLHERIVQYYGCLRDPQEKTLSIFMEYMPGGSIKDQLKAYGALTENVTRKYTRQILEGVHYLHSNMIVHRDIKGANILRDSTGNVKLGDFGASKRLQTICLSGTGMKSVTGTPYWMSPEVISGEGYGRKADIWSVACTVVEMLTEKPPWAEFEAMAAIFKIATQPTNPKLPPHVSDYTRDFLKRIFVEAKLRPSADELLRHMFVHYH
Briefly: Inhibition of MAP3K2 (unknown origin) assessed as residual activity at 1000 nM by KINOMEscan analysis relative to control.

Experiment [9] addresses Peripheral plasma membrane protein CASK (Homo sapiens) (UniProt O14936). Description: Inhibition of CASK (unknown origin) assessed as residual activity at 1000 nM by KINOMEscan analysis relative to control.

Sequence of Fibroblast growth factor receptor 3 (Homo sapiens), P22607 [G697C] (P22607 whole entry G697C): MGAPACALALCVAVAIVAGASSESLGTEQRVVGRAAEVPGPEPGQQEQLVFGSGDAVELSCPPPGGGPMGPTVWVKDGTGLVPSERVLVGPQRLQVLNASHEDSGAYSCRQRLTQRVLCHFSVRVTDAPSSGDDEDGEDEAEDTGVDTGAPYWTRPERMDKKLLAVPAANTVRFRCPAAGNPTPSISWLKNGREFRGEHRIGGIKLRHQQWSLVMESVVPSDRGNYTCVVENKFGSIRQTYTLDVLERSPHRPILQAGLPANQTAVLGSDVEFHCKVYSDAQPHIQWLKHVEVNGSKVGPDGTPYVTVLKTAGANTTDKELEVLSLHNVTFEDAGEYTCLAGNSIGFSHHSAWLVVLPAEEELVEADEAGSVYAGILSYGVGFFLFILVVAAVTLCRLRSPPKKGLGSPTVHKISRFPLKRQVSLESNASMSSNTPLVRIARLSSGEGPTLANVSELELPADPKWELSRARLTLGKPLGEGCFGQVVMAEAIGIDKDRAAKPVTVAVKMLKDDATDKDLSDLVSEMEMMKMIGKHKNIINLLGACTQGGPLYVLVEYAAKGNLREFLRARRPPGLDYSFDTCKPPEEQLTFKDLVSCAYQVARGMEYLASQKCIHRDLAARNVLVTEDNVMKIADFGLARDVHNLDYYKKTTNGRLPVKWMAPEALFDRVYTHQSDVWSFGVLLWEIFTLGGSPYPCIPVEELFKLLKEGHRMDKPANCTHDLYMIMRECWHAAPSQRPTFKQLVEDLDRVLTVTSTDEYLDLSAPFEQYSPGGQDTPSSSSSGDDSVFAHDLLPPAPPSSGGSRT
Sequence of Myosin light chain kinase, smooth muscle (Homo sapiens) (Q15746 whole entry): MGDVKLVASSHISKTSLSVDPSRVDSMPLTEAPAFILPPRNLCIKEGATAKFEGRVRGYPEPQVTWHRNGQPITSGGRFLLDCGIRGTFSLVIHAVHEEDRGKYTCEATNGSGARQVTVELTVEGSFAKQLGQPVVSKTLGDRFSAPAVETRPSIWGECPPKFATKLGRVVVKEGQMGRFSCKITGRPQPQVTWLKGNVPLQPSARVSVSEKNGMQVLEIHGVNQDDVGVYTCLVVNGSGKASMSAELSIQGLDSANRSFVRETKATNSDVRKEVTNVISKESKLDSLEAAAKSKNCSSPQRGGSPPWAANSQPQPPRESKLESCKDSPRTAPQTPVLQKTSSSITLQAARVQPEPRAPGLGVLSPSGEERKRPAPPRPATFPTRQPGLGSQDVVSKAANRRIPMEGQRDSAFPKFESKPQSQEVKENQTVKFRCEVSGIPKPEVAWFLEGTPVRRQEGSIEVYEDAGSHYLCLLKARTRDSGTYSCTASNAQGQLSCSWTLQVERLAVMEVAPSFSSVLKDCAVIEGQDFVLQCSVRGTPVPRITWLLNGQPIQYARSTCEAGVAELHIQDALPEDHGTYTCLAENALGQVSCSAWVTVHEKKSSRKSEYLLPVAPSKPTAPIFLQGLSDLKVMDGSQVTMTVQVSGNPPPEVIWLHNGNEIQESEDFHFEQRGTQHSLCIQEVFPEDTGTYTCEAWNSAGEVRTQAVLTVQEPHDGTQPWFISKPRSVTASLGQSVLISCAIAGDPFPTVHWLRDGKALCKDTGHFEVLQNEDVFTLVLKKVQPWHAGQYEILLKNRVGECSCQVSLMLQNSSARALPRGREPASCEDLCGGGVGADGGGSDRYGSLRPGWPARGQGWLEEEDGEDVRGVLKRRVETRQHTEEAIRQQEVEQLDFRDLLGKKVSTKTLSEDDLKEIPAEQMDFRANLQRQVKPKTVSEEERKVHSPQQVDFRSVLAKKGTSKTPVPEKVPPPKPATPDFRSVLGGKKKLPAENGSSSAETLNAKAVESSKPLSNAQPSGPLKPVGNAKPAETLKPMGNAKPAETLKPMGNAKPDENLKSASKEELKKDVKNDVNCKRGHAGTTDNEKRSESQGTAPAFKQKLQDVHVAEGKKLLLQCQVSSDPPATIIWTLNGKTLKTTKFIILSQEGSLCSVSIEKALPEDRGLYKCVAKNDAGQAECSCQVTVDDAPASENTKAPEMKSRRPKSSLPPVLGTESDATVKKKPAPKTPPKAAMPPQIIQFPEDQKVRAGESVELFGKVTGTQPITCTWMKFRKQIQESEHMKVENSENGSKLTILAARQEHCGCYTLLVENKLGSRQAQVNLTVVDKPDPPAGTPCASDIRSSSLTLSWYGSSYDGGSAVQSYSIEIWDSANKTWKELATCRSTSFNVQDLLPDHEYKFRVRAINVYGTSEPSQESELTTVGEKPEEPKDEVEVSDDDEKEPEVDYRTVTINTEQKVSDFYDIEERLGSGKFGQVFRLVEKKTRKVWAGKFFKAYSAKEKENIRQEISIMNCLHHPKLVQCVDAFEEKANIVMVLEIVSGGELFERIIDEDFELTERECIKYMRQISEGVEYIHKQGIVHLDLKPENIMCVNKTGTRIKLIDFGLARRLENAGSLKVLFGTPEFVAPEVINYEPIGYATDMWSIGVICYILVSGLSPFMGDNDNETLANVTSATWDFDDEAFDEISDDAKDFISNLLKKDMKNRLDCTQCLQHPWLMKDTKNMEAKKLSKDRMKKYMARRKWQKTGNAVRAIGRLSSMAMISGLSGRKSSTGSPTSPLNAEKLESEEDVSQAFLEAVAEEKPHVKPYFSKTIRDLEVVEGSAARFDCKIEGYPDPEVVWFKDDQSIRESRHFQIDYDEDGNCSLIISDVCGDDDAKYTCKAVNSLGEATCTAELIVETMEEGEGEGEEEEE
Sequence of Insulin receptor-related protein (Homo sapiens) (P14616 27-742 limits assumed): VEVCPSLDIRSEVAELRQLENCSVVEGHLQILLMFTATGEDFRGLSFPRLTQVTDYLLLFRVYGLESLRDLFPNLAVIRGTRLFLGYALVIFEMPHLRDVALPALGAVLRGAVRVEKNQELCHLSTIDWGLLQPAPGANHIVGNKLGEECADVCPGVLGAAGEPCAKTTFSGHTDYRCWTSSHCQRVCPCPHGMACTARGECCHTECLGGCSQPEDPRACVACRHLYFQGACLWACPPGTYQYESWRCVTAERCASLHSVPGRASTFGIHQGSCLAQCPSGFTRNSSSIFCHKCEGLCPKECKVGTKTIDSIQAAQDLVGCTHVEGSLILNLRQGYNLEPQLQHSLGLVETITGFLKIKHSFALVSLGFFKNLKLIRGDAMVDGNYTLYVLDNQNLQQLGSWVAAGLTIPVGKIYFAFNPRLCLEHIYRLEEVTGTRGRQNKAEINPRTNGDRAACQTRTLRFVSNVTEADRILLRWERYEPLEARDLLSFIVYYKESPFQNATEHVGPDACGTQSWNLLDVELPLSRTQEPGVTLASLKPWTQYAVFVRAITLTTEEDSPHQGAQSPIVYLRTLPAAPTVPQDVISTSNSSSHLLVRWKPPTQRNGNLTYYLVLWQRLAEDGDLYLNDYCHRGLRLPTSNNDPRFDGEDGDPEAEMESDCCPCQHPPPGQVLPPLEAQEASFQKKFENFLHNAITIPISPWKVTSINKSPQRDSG
Sequence of Insulin receptor-related protein (Homo sapiens) (P14616 747-1297 limits assumed): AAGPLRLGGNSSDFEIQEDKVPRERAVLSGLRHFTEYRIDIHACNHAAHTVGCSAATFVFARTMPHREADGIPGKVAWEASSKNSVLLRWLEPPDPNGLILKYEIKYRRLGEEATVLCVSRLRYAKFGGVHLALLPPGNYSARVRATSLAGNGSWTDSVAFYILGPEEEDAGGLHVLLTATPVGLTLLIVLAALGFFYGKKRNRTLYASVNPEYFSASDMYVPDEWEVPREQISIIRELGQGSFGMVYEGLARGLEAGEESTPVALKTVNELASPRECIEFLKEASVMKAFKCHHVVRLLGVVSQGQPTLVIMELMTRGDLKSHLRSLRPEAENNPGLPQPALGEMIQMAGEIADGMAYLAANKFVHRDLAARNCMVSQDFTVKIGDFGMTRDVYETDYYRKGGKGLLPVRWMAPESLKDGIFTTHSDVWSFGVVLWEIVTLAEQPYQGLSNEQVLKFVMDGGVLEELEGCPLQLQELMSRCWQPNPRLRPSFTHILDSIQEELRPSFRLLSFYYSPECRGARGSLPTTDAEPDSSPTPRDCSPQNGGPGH
Sequence of Cyclin-dependent kinase 11B (Homo sapiens) (P21127 whole entry): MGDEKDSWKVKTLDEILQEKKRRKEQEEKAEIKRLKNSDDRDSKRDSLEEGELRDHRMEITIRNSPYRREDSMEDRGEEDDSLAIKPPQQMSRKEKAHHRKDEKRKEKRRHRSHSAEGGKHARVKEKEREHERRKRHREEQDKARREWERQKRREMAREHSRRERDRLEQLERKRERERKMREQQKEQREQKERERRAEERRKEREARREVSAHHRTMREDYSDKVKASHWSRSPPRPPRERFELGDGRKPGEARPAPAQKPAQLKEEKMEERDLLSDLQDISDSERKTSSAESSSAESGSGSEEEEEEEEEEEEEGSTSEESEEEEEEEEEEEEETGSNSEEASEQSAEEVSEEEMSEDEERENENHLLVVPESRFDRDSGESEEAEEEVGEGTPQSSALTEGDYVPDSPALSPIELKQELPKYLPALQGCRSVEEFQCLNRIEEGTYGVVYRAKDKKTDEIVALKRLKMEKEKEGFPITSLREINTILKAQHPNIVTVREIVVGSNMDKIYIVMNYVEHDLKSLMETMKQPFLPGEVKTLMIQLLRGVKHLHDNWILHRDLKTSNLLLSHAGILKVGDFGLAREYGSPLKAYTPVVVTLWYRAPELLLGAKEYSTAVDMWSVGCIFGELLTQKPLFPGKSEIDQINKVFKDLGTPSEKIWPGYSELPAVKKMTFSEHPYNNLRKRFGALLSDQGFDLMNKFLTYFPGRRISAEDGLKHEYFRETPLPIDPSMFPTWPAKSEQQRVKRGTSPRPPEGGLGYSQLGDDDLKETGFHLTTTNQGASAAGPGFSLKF

For `COc1cc2ncnc(N[C@H](C)c3cccc4ccccc34)c2cc1OC`, the Activity in experiment [1] is 93%; in experiment [2], 100%; in experiment [3], 96%; in experiment [4] it was 95%; in experiment [5] it was 91%; in [6] it was 84%. In addition, the Activity in experiment [7] stood at 88%; in experiment [8] it was 100%; in [9], 72%.

Turning to `COc1cc2nc(C)nc(N[C@H](C)c3cccc(-c4cn[nH]c4)c3)c2cc1OC`, the Activity turned out to be 97% in experiment [1]; 35% in experiment [2]; 100% in experiment [3]; 91% in experiment [4]; 52% in experiment [5]; 100% in experiment [6]. The Activity in experiment [7] was found to be 97%; in experiment [8], 76%; in experiment [9], 78%.

The record behind these values is ChEMBL document CHEMBL5678818, “Discovery of potent SOS1 inhibitors that block RAS activation via disruption of the RAS-SOS1 interaction” (Proc Natl Acad Sci U S A, 2019).
